# Patent publication US20070099876A1, “Target directed chemotherapy of tumours of the sexual organs” (priority 2003, published 2007)
# Test system: mammary carcinoma of the rat
# Assay: mammary tumours induced by benzidine in female Wistar rats
# Format: in vivo
# Conditions: low dosage
# Description: For the development of active agents against tumours of the human sexual organs, an animal model closely similar to human tumours is needed, so that truly significant test results can be accomplished. The known “Huggins tumours” (C. Huggins et al., Rapid induction of mammary carcinoma in the rat and the influence of hormones, J. Exper. Med. 109, 25 (1959)) can be generated and combated easily, e.g. by endocrine manipulations and the usual chemotherapy (e.g. with endoxan®=cyclophosphamide monohydrate). In contrast, the tumours generated by benzidine in female Wistar rats require more time for induction and are (like human mammary tumour) only up to about 50% hormone dependent; they (like human mammary tumour) cannot be influenced effectively by chemotherapeutics and other methods of treatment in the art. Therefore, we have found the desired suitable animal model in Wistar rats with mammary tumours induced by benzidine.
# 20 female Wistar rats are treated with benzidine. The first benzidine dose is 150 mg/kg; then the doses are reduced to weekly 100 mg/kg. Then doses per 75 mg/kg follow within a gap of 14 days. There from a total dose of 1.225 g/kg results.
# In total 29 mammary carcinomas are generated. […]
# After the first tumour is generated (about 0.5 g) the benzidine application is stopped. […] The tumour size is determined tactually; experienced experimenters can determine it precisely to 0.1 g. […]
structure (smiles),measurement,value
"CN(C)/N=N/c1ccc2c(c1)CCC1C2CCC2(C)C(=O)CCC12 (stereo not shown) [Example 11, 3-(1,1-dimethyltriazenyl)-estrone]",effect against mammary carcinoma of the rat,very good effect at low dosage
